In the supplement of paper PMC4862054:

How the values were obtained:
Conditions in all cases: 72 h
CAL-85-1 [1] = system: CAL-85-1
Procedure: (§1)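 Drug sensitivity and resistance testing (DSRT) of breast cancer cell lines in 384-well plates, 5 concentrations in 10-fold dilutions over a compound-specific 10,000-fold range. After 72 h, cytotoxicity was read by CellTox Green fluorescence and viability by CellTiter-Glo luminescence (multiplexed), normalised to DMSO and benzethonium chloride controls. EC50 is the inflection point of the fitted dose-response curve (bottom asymptote free, so it can be relative for partial curves) and is censored at the highest tested concentration. Rows with DSS 0 (no meaningful response) were excluded.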

MDA-MB-231 [2] = system: MDA-MB-231
Procedure: as §1

DU-4475 [3] = system: DU-4475
Procedure: as §1

MCF-10A [4] = system: MCF-10A
Procedure: as §1

CAL-120 [5] = system: CAL-120
Procedure: as §1

MFM-223 [6] = system: MFM-223
Procedure, shortened: (§2)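 Breast cancer cell lines in 20 µl suspension were added to 384-well plates already holding compound at 5 concentrations, spaced in 10-fold steps across a compound-specific 10,000-fold range, and incubated for 72 h. CellTox Green fluorescence (485/520 nm) was read first to measure cell death, followed by CellTiter-Glo luminescence for viability after 10 min at room temperature. Each plate was normalised to 0.1 % DMSO and a positive kill control. EC50 values came from dose-response curve fits and were censored at the top concentration.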

HDQ-P1 [7] = system: HDQ-P1
Procedure, shortened: as §2

HCC1937 [8] = system: HCC1937
Procedure, shortened: as §2

BT-474 [9] = system: BT-474
Procedure, shortened: as §2

CAL-85-1 [10] = system: CAL-85-1; remark: listed apart in the source
Procedure, shortened: as §2

MDA-MB-231 [11] = system: MDA-MB-231; remark: listed apart in the source
Procedure, shortened: as §2

DU-4475 [12] = system: DU-4475; remark: listed apart in the source
Procedure, shortened: as §2

MDA-MB-436 [13] = system: MDA-MB-436
Procedure, shortened: as §2

MCF-10A [14] = system: MCF-10A; remark: listed apart in the source
Procedure, shortened: as §2

CAL-120 [15] = system: CAL-120; remark: listed apart in the source
Procedure, shortened: as §2

Hs578T [16] = system: Hs578T
Procedure, shortened: as §2

MFM-223 [17] = system: MFM-223; remark: listed apart in the source
Procedure: as §1

MDA-MB-453 [18] = system: MDA-MB-453
Procedure: as §1

HDQ-P1 [19] = system: HDQ-P1; remark: listed apart in the source
Procedure: as §1

BT-549 [20] = system: BT-549
Procedure: as §1

HCC1599 [21] = system: HCC1599
Procedure: as §1

HCC1937 [22] = system: HCC1937; remark: listed apart in the source
Procedure: as §1

CAL-148 [23] = system: CAL-148
Procedure: as §1

CAL-51 [24] = system: CAL-51
Procedure: as §1

MDA-MB-468 [25] = system: MDA-MB-468
Procedure: as §1

BT-474 [26] = system: BT-474; remark: listed apart in the source
Procedure: as §1

MDA-MB-436 [27] = system: MDA-MB-436; remark: listed apart in the source
Procedure: as §1

MDA-MB-453 [28] = system: MDA-MB-453; remark: listed apart in the source
Procedure, shortened: as §2

BT-549 [29] = system: BT-549; remark: listed apart in the source
Procedure, shortened: as §2

HCC1599 [30] = system: HCC1599; remark: listed apart in the source
Procedure, shortened: as §2

HCC1143 = system: HCC1143
Procedure, shortened: as §2

CAL-148 [31] = system: CAL-148; remark: listed apart in the source
Procedure, shortened: as §2

CAL-51 [32] = system: CAL-51; remark: listed apart in the source
Procedure, shortened: as §2

MDA-MB-468 [33] = system: MDA-MB-468; remark: listed apart in the source
Procedure, shortened: as §2

SK-BR-3 = system: SK-BR-3
Procedure, shortened: as §2

Hs578T [34] = system: Hs578T; remark: listed apart in the source
Procedure, shortened: (§3)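 EC50 is the value from a fitted percent-inhibition dose-response curve, censored at the highest concentration, and rows with zero drug sensitivity score were not kept. The underlying assay seeded breast cancer cell lines in 20 µl onto 384-well plates pre-loaded with compound in 5 µl medium for 72 h. Viability was then read by CellTiter-Blue fluorescence at 560/590 nm after 2 h at 37 °C, with each plate normalised to vehicle and a positive kill control.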

HDQ-P1 [35] = system: HDQ-P1; remark: listed apart in the source
Procedure, shortened: as §3

CAL-85-1 [36] = system: CAL-85-1; remark: listed apart in the source
Procedure, shortened: as §3

DU-4475 [37] = system: DU-4475; remark: listed apart in the source
Procedure, shortened: as §3

Structure (SMILES)	EC50, CellTox Green (CAL-85-1 [1]) [nM]	EC50, CellTox Green (MDA-MB-231 [2]) [nM]	EC50, CellTox Green (DU-4475 [3]) [nM]	EC50, CellTox Green (MCF-10A [4]) [nM]	EC50, CellTox Green (CAL-120 [5]) [nM]	EC50, CellTiter-Glo (MFM-223 [6]) [nM]	EC50, CellTiter-Glo (HDQ-P1 [7]) [nM]	EC50, CellTiter-Glo (HCC1937 [8]) [nM]	EC50, CellTiter-Glo (BT-474 [9]) [nM]	EC50, CellTiter-Glo (CAL-85-1 [10]) [nM]	EC50, CellTiter-Glo (MDA-MB-231 [11]) [nM]	EC50, CellTiter-Glo (DU-4475 [12]) [nM]	EC50, CellTiter-Glo (MDA-MB-436 [13]) [nM]	EC50, CellTiter-Glo (MCF-10A [14]) [nM]	EC50, CellTiter-Glo (CAL-120 [15]) [nM]	EC50, CellTiter-Glo (Hs578T [16]) [nM]	EC50, CellTox Green (MFM-223 [17]) [nM]	EC50, CellTox Green (MDA-MB-453 [18]) [nM]	EC50, CellTox Green (HDQ-P1 [19]) [nM]	EC50, CellTox Green (BT-549 [20]) [nM]	EC50, CellTox Green (HCC1599 [21]) [nM]	EC50, CellTox Green (HCC1937 [22]) [nM]	EC50, CellTox Green (CAL-148 [23]) [nM]	EC50, CellTox Green (CAL-51 [24]) [nM]	EC50, CellTox Green (MDA-MB-468 [25]) [nM]	EC50, CellTox Green (BT-474 [26]) [nM]	EC50, CellTox Green (MDA-MB-436 [27]) [nM]	EC50, CellTiter-Glo (MDA-MB-453 [28]) [nM]	EC50, CellTiter-Glo (BT-549 [29]) [nM]	EC50, CellTiter-Glo (HCC1599 [30]) [nM]	EC50, CellTiter-Glo (HCC1143) [nM]	EC50, CellTiter-Glo (CAL-148 [31]) [nM]	EC50, CellTiter-Glo (CAL-51 [32]) [nM]	EC50, CellTiter-Glo (MDA-MB-468 [33]) [nM]	EC50, CellTiter-Glo (SK-BR-3) [nM]	EC50, CellTiter-Blue viability (Hs578T [34]) [nM]	EC50, CellTiter-Blue viability (HDQ-P1 [35]) [nM]	EC50, CellTiter-Blue viability (CAL-85-1 [36]) [nM]	EC50, CellTiter-Blue viability (DU-4475 [37]) [nM]
CC(=O)Nc1cccc(-n2c(=O)n(C3CC3)c(=O)c3c(Nc4ccc(I)cc4F)n(C)c(=O)c(C)c32)c1 [Trametinib]	71.5	0.4	2.32	79.2	45.4	53.2	1.7	172	14.7	21.1	6.45	1.37	67	0.71	16.2	137	–	–	–	–	–	–	–	–	–	–	–	–	–	–	–	–	–	–	–	–	–	–	–
COc1cc2c(NC3CCN(C(C)C)CC3)nc(C3CCCCC3)nc2cc1OCCCN1CCCC1 [UNC0638]	2440	1650	–	2230	2440	2270	5250	3460	2660	3520	2540	1650	2510	1880	2720	–	2920	2520	4720	2100	1440	2140	2730	1650	2380	2200	4240	2400	2530	2790	2380	2510	1660	1950	2270	–	–	–	–
CCCS(=O)(=O)Nc1ccc(F)c(C(=O)c2c[nH]c3ncc(-c4ccc(Cl)cc4)cc23)c1F [Vemurafenib]	–	> 10000	421	–	–	–	–	–	–	–	–	551	–	–	–	–	–	–	–	–	–	–	–	21.9	–	–	–	–	–	–	–	–	1680	–	–	9430	3680	> 10000	295
